Assay results from ChEMBL document CHEMBL6121046, “Discovery of Novel Hydrazide-Based HDAC3 Inhibitors as Epigenetic Immunomodulators for Cancer Immunotherapy” (J Med Chem, 2025).
Activity calls are given as the source filed them. The rule behind the calls is not given here.

Key:
Mus musculus [1] = test: (§1) Immunomodulatory effect in C57BL/6 mouse allografted mouse MC38 cells assessed as increase in tumor infiltrating lymphocytes by measuring increase in CD8+ T helper cells in mouse blood at 50 mg/kg, po treated 5 days after cell inoculation 19 th day by flow cytometry analysis (reference value: 0.35%); assay type: functional; conditions: time 15 day
Mus musculus [2] = test: Immunomodulatory effect in C57BL/6 mouse allografted with mouse MC38 cells assessed as increase in tumor infiltrating lymphocytes by measuring increase in CD3+ CD4+ cells in presence of NP19 PD-L1 inhibitor at 50 mg/kg, po treated 5 days after cell inoculation 19 th day by flow cytometry analysis; assay type: functional, organism-based; conditions: time 15.0 day
[3] = MRT (0 to t) in Sprague-Dawley rat at 20 mg/kg, po measured upto 12 hrs by LC-MS/MS analysis; assay type: ADME, organism-based; conditions: in vivo
Mus musculus [4] = test: as §1, with “CD4+” for “CD8+”, “lymph nodes” for “blood”, “15.5%)” for “0.35%)”; assay type: functional; conditions: time 15 day
[5] = Toxicity in C57BL/6 mouse allografted with mouse MC38 cells assessed as pathological changes in lung at 50 mg/kg, po treated 5 days after cell inoculation 19 th day by hematoxylin and eosin analysis; assay type: organism-based; conditions: in vivo, 360 h, time 15 day
Mus musculus [6] = test: as §1, with “lymph nodes” for “blood”, “20.3%)” for “0.35%)”; assay type: functional; conditions: time 15 day
MC-38 [7] = test: In vivo antitumor activity against MC38 cells allografted in C57BL/6 mouse assessed as tumor growth inhibition in presence of NP19 PD-L1 inhibitor at 50 mg/kg, po treated 5 days after cell inoculation 19 th day relative to control; assay type: functional; conditions: MC-38, 360 h, time 15 day, read-out: TGI
Mus musculus [8] = test: as §1, with “blood in presence of NP19 PD-L1 inhibitor” for “blood”; assay type: functional; conditions: time 15 day
[9] = Clearance in Sprague-Dawley rat at 20 mg/kg, po measured upto 12 hrs by LC-MS/MS analysis; assay type: ADME, organism-based; conditions: in vivo
[10] = MRT (0 to t) in Sprague-Dawley rat at 20 mg/kg, iv measured upto 12 hrs by LC-MS/MS analysis; assay type: ADME, organism-based; conditions: in vivo
Mus musculus [11] = test: as §1, with “tumor in presence of NP19 PD-L1 inhibitor” for “mouse blood”, “2.32%)” for “0.35%)”; assay type: functional; conditions: time 15 day
MC-38 [12] = test: Induction of PD-L1 expression in mouse MC38 cells in presence of JQ-1 BRD4 inhibitor at 2 uM measured after 24 hrs incubation by Western blot analysis; assay type: functional, cell-based
MC-38 [13] = test: Induction of PD-L1 expression in mouse MC38 cells in presence of JQ-1 BRD4 inhibitor at 4 uM measured after 24 hrs incubation by Western blot analysis; assay type: functional, cell-based
[14] = Toxicity in C57BL/6 mouse allografted with mouse MC38 cells assessed as creatinine (CRE) level in serum at 50 mg/kg, po treated 5 days after cell inoculation 19 th day; assay type: organism-based; conditions: in vivo, 360 h, time 15 day
[15] = Toxicity in C57BL/6 mouse allografted with mouse MC38 cells assessed as body weight loss at 50 mg/kg, po treated 5 days after cell inoculation 19 th day; assay type: organism-based; conditions: in vivo, 360 h, time 15 day
MC-38 [16] = test: In vivo antitumor activity against mouse MC38 cells allografted in C57BL/6 mouse assessed as decrease in […] positive cells in tumor at 50 mg/kg, po treated 5 days after cell inoculation 19 th day by immunofluorescence analysis; assay type: functional, organism-based; conditions: time 15.0 day
MC-38 [17] = test: Induction of PD-L1 expression in mouse MC38 cells measured after 24 hrs incubation by immunofluorescence staining analysis; assay type: functional, cell-based; conditions: dose 1-4 µM
[18] = Toxicity in C57BL/6 mouse allografted with mouse MC38 cells assessed as urea nitrogen (BUN) level in serum at 50 mg/kg, po treated 5 days after cell inoculation 19 th day; assay type: organism-based; conditions: in vivo, 360 h, time 15 day
[19] = MRT (0 to infinity) in Sprague-Dawley rat at 20 mg/kg, po measured upto 12 hrs by LC-MS/MS analysis; assay type: ADME, organism-based; conditions: in vivo
Mus musculus [20] = test: Immunomodulatory effect in C57BL/6 mouse allografted with mouse MC38 cells assessed as increase in tumor infiltrating lymphocytes by measuring increase in CD3+ CD4+ cells at 50 mg/kg, po treated 5 days after cell inoculation 19 th day by flow cytometry analysis; assay type: functional, organism-based; conditions: time 15.0 day
Mus musculus [21] = test: Induction of acetylated H3 level in tumor in C57BL/6 mouse allografted with mouse MC38 cells at 50 mg/kg, po treated 5 days after cell inoculation 19 th day by immunofluorescence analysis; assay type: functional, organism-based; conditions: time 15.0 day
[22] = AUC (0 to t) in Sprague-Dawley rat at 20 mg/kg, po measured upto 12 hrs by LC-MS/MS analysis; assay type: ADME, organism-based; conditions: in vivo
[23] = Tmax in Sprague-Dawley rat at 20 mg/kg, iv measured upto 12 hrs by LC-MS/MS analysis; assay type: ADME, organism-based; conditions: in vivo
Mus musculus [24] = test: Immunomodulatory effect in C57BL/6 mouse allografted mouse MC38 cells assessed as increase in tumor infiltrating lymphocytes by measuring increase in CD8+ T […] cells in tumor at 50 mg/kg, po treated 5 days after cell inoculation 19 th day by flow cytometry analysis (reference value: 2.32%); assay type: functional; conditions: time 15 day
MC-38 [25] = test: In vivo antitumor activity against mouse MC38 cells allografted in C57BL/6 mouse assessed as apoptosis in tumor at 50 mg/kg, po treated 5 days after cell inoculation 19 th day relative to control; assay type: functional, organism-based; conditions: time 15.0 day
[26] = Half life in Sprague-Dawley rat at 20 mg/kg, iv measured upto 12 hrs by LC-MS/MS analysis; assay type: ADME, organism-based; conditions: in vivo
[27] = Toxicity in C57BL/6 mouse allografted with mouse MC38 cells assessed as alanine amino transferase (ALT) level in serum at 50 mg/kg, po treated 5 days after cell inoculation 19 th day; assay type: organism-based; conditions: in vivo, 360 h, time 15 day
Mus musculus [28] = test: (§2) Immunomodulatory effect in C57BL/6 mouse allografted mouse MC38 cells assessed as increase in tumor infiltrating lymphocytes by measuring increase in CD4+ T helper cells in mouse lymph nodes in presence of NP19 PD-L1 inhibitor at 50 mg/kg, po treated 5 days after cell inoculation 19 th day by flow cytometry analysis (reference value: 15.5%); assay type: functional; conditions: time 15 day
Mus musculus [29] = test: Induction of PD-L1 expression in tumor in C57BL/6 mouse allografted with mouse MC38 cells at 50 mg/kg, po treated 5 days after cell inoculation 19 th day by immunofluorescence analysis; assay type: functional, organism-based; conditions: time 15.0 day
Mus musculus [30] = test: as §2, with “spleen” for “lymph nodes”, “10.8%)” for “15.5%)”; assay type: functional; conditions: time 15 day
MC-38 [31] = test: Induction of mitochondrial membrane damage in mouse MC38 cells assessed as increase in JC-1 monomers by measuring green fluorescence at 1 uM measured after 48 hrs (reference value: 3.13%); assay type: functional
MC-38 [32] = test: Induction of ROS production in mouse MC38 cells assessed as increase in intracellular ROS level measured after 48 hrs by DCFH-DA/Brightfield - fluorescence imaging analysis; assay type: functional, cell-based
[33] = Toxicity in C57BL/6 mouse allografted with mouse MC38 cells assessed as pathological changes in spleen at 50 mg/kg, po treated 5 days after cell inoculation 19 th day by hematoxylin and eosin analysis; assay type: organism-based; conditions: in vivo, 360 h, time 15 day

Question: With `CCCNNC(=O)c1ccc(CNC(=O)c2cnc(-c3ccc4occc4c3)[nH]2)cc1` as the compound, how does the Activity (Mus musculus [1]) read?
Answer: The Activity was 0.56%.

Question: And the Activity (Mus musculus [2])?
Answer: Its Activity is “Active”.

Question: And the MRT last at 12 h [3]?
Answer: The MRT last at 12 h was 4.2 h.

Question: And the Activity (Mus musculus [4])?
Answer: Its Activity is 20.3%.

Question: And the Activity [5]?
Answer: Its Activity is “Non-toxic”.

Question: What about the Activity (Mus musculus [6]) of the same compound?
Answer: The Activity was 29.6%.

Question: And the inhibition in vivo at 50 mg/kg (MC-38 [7])?
Answer: Its inhibition in vivo at 50 mg/kg is 80%.

Question: What about the Activity (Mus musculus [8]) of the same compound?
Answer: Its Activity is 0.83%.

Question: And the CL/F [9]?
Answer: Its CL/F is 259 mL/min/kg.

Question: What about the MRT last at 12 h [10] of the same compound?
Answer: The MRT last at 12 h was 1.19 h.

Question: And the Activity (Mus musculus [11])?
Answer: Its Activity is 7.83%.

Question: And the Activity (MC-38 [12])?
Answer: Its Activity is “Active”.

Question: What about the Activity (MC-38 [13]) of the same compound?
Answer: The Activity was “Active”.

Question: What about the Activity [14] of the same compound?
Answer: Its Activity is “Non-toxic”.

Question: What about the Activity [15] of the same compound?
Answer: Its Activity is “Non-toxic”.

Question: And the Activity (MC-38 [16])?
Answer: Its Activity is “Active”.

Question: And the Activity (MC-38 [17])?
Answer: Its Activity is “Dose-dependent-effect”.

Question: What about the Activity [18] of the same compound?
Answer: Its Activity is “Non-toxic”.

Question: And the MRT inf [19]?
Answer: Its MRT inf is 4.33 h.

Question: What about the Activity (Mus musculus [20]) of the same compound?
Answer: Its Activity is “Active”.

Question: What about the Activity (Mus musculus [21]) of the same compound?
Answer: The Activity was “Active”.

Question: And the AUC(0-t) at 12 h [22]?
Answer: The AUC(0-t) at 12 h was 1420 ng·h/mL.

Question: What about the Tmax [23] of the same compound?
Answer: Its Tmax is 4.8 min.

Question: What about the Activity (Mus musculus [24]) of the same compound?
Answer: Its Activity is 5.29%.

Question: And the Activity (MC-38 [25])?
Answer: The Activity was “Active”.

Question: And the half-life [26]?
Answer: Its half-life is 1 h.

Question: What about the Activity [27] of the same compound?
Answer: Its Activity is “Non-toxic”.

Question: What about the Activity (Mus musculus [28]) of the same compound?
Answer: Its Activity is 20%.

Question: And the Activity (Mus musculus [29])?
Answer: The Activity was “Active”.

Question: What about the Activity (Mus musculus [30]) of the same compound?
Answer: The Activity was 11.9%.

Question: What about the Activity (MC-38 [31]) of the same compound?
Answer: Its Activity is 6.34%.

Question: What about the Activity (MC-38 [32]) of the same compound?
Answer: Its Activity is “Dose-dependent-effect”.

Question: What about the Activity [33] of the same compound?
Answer: Its Activity is “Non-toxic”.
